# Laboratory results published in patent US12514836B2, “Composition for prevention and treatment of myopathy” (ONCOCROSS CO., LTD., priority 2020, dated 2026).
# Experiments:
# MHC and myogenin = test: Western blot of myoblast differentiation markers in C2C12 cells; format: cell-based, mouse; conditions: 500 μM H2O2, vs DMSO group, FIG. 4
# Description: (§1) At this time, 500 μM of H2O2 (hydrogen peroxide) was treated with the differentiation medium to create conditions for inhibiting differentiation. Thereafter, the differentiation medium containing H2O2 and the drugs were exchanged every 2 days. After 4 to 6 days, when the shape of myotubes was confirmed, the myotubes were added with 80 μl of a lysis buffer and then vortexed, and centrifuged for 10 minutes at 14000 rpm, and the obtained proteins were added with a 5× sample buffer and reacted in 95° C. boiling water for 5 minutes. 8 μg of the reacted proteins was loaded on 8% and 12% SDS-PAGE gels, developed, and then transferred to a membrane. The membrane was blocked with PBST containing 5% skim milk at room temperature for 1 hour. The membrane was washed with 1×PBST, added with a primary antibody diluted at 1:1000, and then O/N reacted at 4° C. The next day, the membrane was washed with 1×PBST three times every 10 minutes, added with a secondary antibody diluted at 1:5000 in PBST containing 5% skim milk, and then reacted at room temperature for 1 hour. The membrane was washed with 1×PBST three times every 10 minutes, reacted in an enhanced chemiluminescent solution (ECL), and then exposed to an X-ray film to obtain a Western blot analysis result.
# SOD1 G93A mice = test: Duration of life of Lou Gehrig (ALS) animal model mice; format: in vivo, mouse
# Source text: The presence of symptoms and mortality were confirmed through a daily behavioral test set.
# C2C12 cells = test: Myoblast differentiation of C2C12 cells seen by microscope under differentiation-suppressing condition (H2O2); format: cell-based, mouse; conditions: 10 μM, 500 μM H2O2, FIG. 3
# 4-EBP = test: Western blot of AKT/mTOR pathway sub-signal 4-EBP in C2C12 cells; format: cell-based, mouse; conditions: 10 μM, 500 μM H2O2, FIG. 4
# Description: as §1
# p70S6K = test: Western blot of AKT/mTOR pathway sub-signal p70S6K in C2C12 cells; format: cell-based, mouse; conditions: 10 μM, 500 μM H2O2, FIG. 4
# Description: as §1
# [1] = test system: MSCs derived from MDX mice; test: Proliferation of muscle satellite cells (MSCs) derived from MDX mice; format: cell-based, mouse; conditions: 100 μM, 48 hours, vs PBS control, FIG. 6
# Source text: In MDX mice (Jackso lab, stock no. 001801) (including point mutations in a DMD gene), as the most popular experimental model for testing Duchenne muscular dystrophy, older MDX mice over 40 weeks of age that maintained a homogenous transgenic state through mating and breeding and wild-type mice (normal mice) were anesthetized with isoflurane and then both tibialis anterior (TA) muscles were punctured 30 times each with a 26 G syringe (Korea Vaccine, Cat no. 27-00024-01) to induce physical muscle destruction. On day 3 after inducing muscle destruction, the mice were sacrificed and the TA muscles were separated, washed with 1×PBS (137 mM NaCl, 2.7 mM KCl, 10 mM Na2HPO4, […]) twice, and then chopped for 5 minutes with a razor blade, added in serum-free DMEM (GE healthcare, Cat no. SH30243.01) diluted with collagenase II (ThermoFisher, Cat no. 17101015) to a concentration of 2 mg/ml and digested for 1 hour. Thereafter, a supernatant was removed by centrifugation at 300×g for 5 minutes, washed once with serum-free DMEM, and passed through a 70 μm strainer. […] In the experiment, the average and each standard deviation of measurement results of three or more times were obtained, and significance with the control was determined through T testing (*: […].<0.001).
Structure (SMILES),expression levels of MHC and myogenin (MHC and myogenin; 5 μM),expression levels of MHC and myogenin (MHC and myogenin; 10 μM),"total median duration of life compared to the drug non-administered group (SOD1 G93A mice; 30 mpk (combination each 30 mpk), intraperitoneally from 10 weeks old, FIG. 1)","prolongation of median duration of life after the appearance of Lou Gehrig's symptoms (SOD1 G93A mice; 30 mpk intraperitoneally from 10 weeks old, non-administered group about 5 weeks, FIG. 2)",prolongation of duration of life converted to Lou Gehrig's patients (SOD1 G93A mice; extrapolated: 5 weeks in mice taken as about 2 years median duration of life in patients),myoblast differentiation (C2C12 cells),expression of 4-EBP compared to the control group (DMSO) (4-EBP),expression of P70S6K (p70S6K),proliferation of MSCs derived from MDX mice [1]
"CN(C)CCOC(c1ccccc1)c1ccccc1.Cn1c(=O)c2[nH]c(Cl)nc2n(C)c1=O [OC-501, dimenhydrinate]",increased,increased,,,,,,,
"CC(C)(CO)[C@@H](O)C(=O)NCCC(=O)O [OC-504, calcium pantothenate]",,increased,increased statistically significantly,about 2 weeks,about 9.6 months,significantly increased,increased,increased,significantly promoted
